According to US9078871B2, “Estrogen receptor modulators and uses thereof” (SERAGON PHARMACEUTICALS, INC., priority 2010, dated 2015):

Assays:
ER-α [1] = molecular target: T1, ER-α (Homo sapiens, UniProt P03372); assay: ER-α In Cell Western Assay (ER1D5); type: cell-based; conditions: MCF-7 cells, ER1D5 antibody, 4 or 24 hr post compound addition, read-out: ER In-Cell Western Assay (ER1D5); for Emax: MCF7, Max Response; for DC50: IC50
T1 construct: endogenous in cells; host or cells: MCF-7
T1 sequence (P03372 1-595): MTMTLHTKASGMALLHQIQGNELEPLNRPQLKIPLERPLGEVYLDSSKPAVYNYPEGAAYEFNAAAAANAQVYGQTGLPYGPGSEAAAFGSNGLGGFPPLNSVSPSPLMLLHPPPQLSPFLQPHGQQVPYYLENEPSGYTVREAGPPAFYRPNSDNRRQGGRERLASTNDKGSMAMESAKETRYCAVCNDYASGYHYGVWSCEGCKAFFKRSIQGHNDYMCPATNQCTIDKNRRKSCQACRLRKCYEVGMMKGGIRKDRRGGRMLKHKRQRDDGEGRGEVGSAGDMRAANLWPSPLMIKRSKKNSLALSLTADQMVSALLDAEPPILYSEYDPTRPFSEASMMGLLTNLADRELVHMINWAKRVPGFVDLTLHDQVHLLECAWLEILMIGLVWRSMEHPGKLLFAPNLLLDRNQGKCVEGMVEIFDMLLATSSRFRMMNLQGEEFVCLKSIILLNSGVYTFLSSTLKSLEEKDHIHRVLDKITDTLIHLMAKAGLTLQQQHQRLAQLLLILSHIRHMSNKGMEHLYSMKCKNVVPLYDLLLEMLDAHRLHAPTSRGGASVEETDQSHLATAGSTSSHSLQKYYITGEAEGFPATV
Method in brief: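 MCF-7 cells in RPMI with 10% charcoal-stripped FBS treated with 11-point semilog series (0.3–0.000003 μM final) for 4 or 24 h. Fixed cells stained with ER1D5 plus IRDye 800CW secondary and DRAQ5; ER level = 800/700 nm intensity ratio as % of untreated cells.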

ER-α [2] = molecular target: T1, ER-α; assay: ER-α in Cell Western Assay (SP1); type: cell-based; conditions: MCF-7 cells, SP1 rabbit monoclonal Ab, 4 or 24 hr post compound addition, read-out: ER In-Cell Western Assay (SP1); for Emax: MCF7, Max Response; for DC50: IC50
Method in brief: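 MCF-7 cells in charcoal-stripped FBS medium treated with 11-point semilog dilutions (0.3–0.000003 μM final) for 4 or 24 hr, then fixed and immunostained with SP1 anti-ER antibody. ER signal (800 nm) normalized to DRAQ5 DNA signal (700 nm) and expressed as % of untreated cells.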

MCF-7 cells = assay: Breast Cancer Cell Viability Assay (MCF7 Viability Assay); type: cell-based; conditions: 5 days' compound exposure, CellTiter-Glo; for IC50: Homo sapiens, MCF7, 120 h
Method in brief: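 MCF-7 cells, 320 per well in RPMI with 10% FBS and 20 mM HEPES, adhered overnight, then exposed 5 days to an eleven-point semilog dilution (final 0.3–0.000003 μM). CellTiter-Glo luminescence; % viability relative to untreated cells after subtracting cell-free background.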

MCF-7 tumors = assay: Xenograft Assay (MCF-7 Derivative), tamoxifen treatment of MCF-7 tumors; type: in vivo; conditions: female nu/nu mice with 17-β estradiol pellets bearing MCF-7 tumors, oral gavage
Description: Female nu/nu mice (with supplemental 17-P3 Estradiol pellets; 0.72 mg; 60 day slow release) bearing MCF-7 tumors (mean tumor volume 200 mm^3) were treated with Tamoxifen (citrate) by oral gavage. Tumor volume (length×width^2/2) and body weight were monitored twice weekly. […] At 120 days of treatment, tamoxifen dose was increased. Rapidly growing tumors were deemed tamoxifen resistant and selected for in vivo passage into new host animals. Tumor Fragments (˜100 mm^3/animal) from the tamoxifen resistant tumors were subcutaneously implanted into the right flank of female nu/nu mice (with 17-P3 Estradiol pellets (0.72 mg; 60 day slow release)). Passaged tumors were maintained under constant Tamoxifen selection and Tumor volume (length×width^2/2) monitored weekly. When tumor volume reached ˜150-250 mm^3, animals were randomized into treatment groups (mean tumor volume 200 mm^3) and tamoxifen treatment was terminated (except for a tamoxifen control arm). Animals were treated with Vehicle or test compound daily for 4 weeks. Tumor volume and body weight were monitored twice weekly for the duration of the study. At the conclusion of the treatment period; plasma and tumor samples were taken for pharmacokinetic and pharmacodynamic analyses, respectively.

| Compound | Emax (ER-α [1]) | DC50 (ER-α [1]) | Emax (ER-α [2]) | DC50 (ER-α [2]) | MCF7 Viability Assay Max Response (MCF-7 cells) | IC50 (MCF-7 cells) | anti-tumor response (tumor volume) (MCF-7 tumors) | time at which evident tumor growth was first observed (MCF-7 tumors) |
| --- | --- | --- | --- | --- | --- | --- | --- | --- |
| CC1=C(c2ccc(O)c(F)c2)C(c2ccc(OC[C@H](C)N3CC[C@@H](C)C3)cc2)Oc2ccc(O)cc21 (stereo partly drawn) [Example 33, 3-(3-Fluoro-4-hydroxyphenyl)-4-methyl-2-(4-((S)-2-((R)-3-methylpyrrolidin-1-yl)propoxy)phenyl)-2H-chromen-6-ol] | ≥ 65% | ≤ 1 nM | ≥ 85% | ≤ 1 nM | ++ (++ = a single % value ≧50%) | ≤ 1 nM |  |  |
| CC1=C(c2cccc(O)c2)C(c2ccc(OCCN3CCCC3)cc2F)Oc2ccc(O)cc21 (centres unmarked) [Example 34, 2-(2-Fluoro-4-(2-(pyrrolidin-1-yl)ethoxy)phenyl)-3-(3-hydroxyphenyl)-4-methyl-2H-chromen-6-ol] | 40 to 65% | ≤ 1 nM | 60 to 85% | ≤ 1 nM | ++ (++ = a single % value ≧50%) | ≤ 1 nM |  |  |
| CC1=C(c2cccc(O)c2)C(c2ccc(OC[C@H](C)N3CC[C@@H](C)C3)cc2F)Oc2ccc(O)cc21 (stereo partly drawn) [Example 35, 2-(2-Fluoro-4-((S)-2-((R)-3-methylpyrrolidin-1-yl)propoxy)phenyl)-3-(3-hydroxyphenyl)-4-methyl-2H-chromen-6-ol] | ≥ 65% | ≤ 1 nM | ≥ 85% | ≤ 1 nM | ++ (++ = a single % value ≧50%) | ≤ 1 nM |  |  |
| CC1=C(c2cccc(O)c2)C(c2ccc(OCCN3CCCC3)cc2)Oc2ccc(O)cc21 (centres unmarked) [Example 36, 3-(3-Hydroxyphenyl)-4-methyl-2-(4-(2-(pyrrolidin-1-yl)ethoxy)phenyl)-2H-chromen-6-ol] | 40 to 65% | ≤ 1 nM | 60 to 85% | ≤ 1 nM | ++ (++ = a single % value ≧50%) | ≤ 1 nM |  |  |
| CC1=C(c2cccc(O)c2)C(c2ccc(OC[C@H](C)N3CCC3)cc2)Oc2ccc(O)cc21 (stereo partly drawn) [Example 37, 2-(4-((S)-2-(Azetidin-1-yl)propoxy)phenyl)-3-(3-hydroxyphenyl)-4-methyl-2H-chromen-6-ol] | 40 to 65% | ≤ 1 nM | 60 to 85% | ≤ 1 nM | ++ (++ = a single % value ≧50%) | ≤ 1 nM |  |  |
| CC1=C(c2cccc(O)c2)C(c2ccc(OCCN3CCC3)cc2)Oc2ccc(O)cc21 (centres unmarked) [Example 38, 2-(4-(2-(Azetidin-1-yl)ethoxy)phenyl)-3-(3-hydroxyphenyl)-4-methyl-2H-chromen-6-ol] | 40 to 65% | ≤ 1 nM | 60 to 85% | ≤ 1 nM | ++ (++ = a single % value ≧50%) | ≤ 1 nM |  |  |
| CC1=C(c2ccc(C)c(O)c2)C(c2ccc(OC[C@H](C)N3CC[C@@H](C)C3)cc2)Oc2ccc(O)cc21 (stereo partly drawn) [Example 39, 3-(3-Hydroxy-4-methylphenyl)-4-methyl-2-(4-((S)-2-((R)-3-methylpyrrolidin-1-yl)propoxy)phenyl)-2H-chromen-6-ol] | ≥ 65% | > 1 nM | 60 to 85% | > 1 nM | ++ (++ = a single % value ≧50%) | > 1 nM |  |  |
| CC1=C(c2cccc(O)c2)C(c2ccc(OCCN3CCC[C@@H](C)C3)cc2)Oc2ccc(O)cc21 (stereo partly drawn) [Example 53, 3-(3-Hydroxyphenyl)-4-methyl-2-(4-(2-((R)-3-methylpiperidin-1-yl)ethoxy)phenyl)-2H-chromen-6-ol] | 40 to 65% | ≤ 1 nM | 60 to 85% | ≤ 1 nM | ++ (++ = a single % value ≧50%) | ≤ 1 nM |  |  |
| CC1=C(c2ccc(Br)cc2)C(c2ccc(OC[C@H](C)N3CC[C@@H](C)C3)cc2)Oc2ccc(O)cc21 (stereo partly drawn) [Example 54, 3-(4-Bromophenyl)-4-methyl-2-(4-((S)-2-((R)-3-methylpyrrolidin-1-yl)propoxy)phenyl)-2H-chromen-6-ol] | ≥ 65% | > 1 nM | 60 to 85% | > 1 nM | ++ (++ = a single % value ≧50%) | > 1 nM |  |  |
| CC1=C(c2ccc(F)cc2)C(c2ccc(OCCN3CCCC3)cc2)Oc2ccc(O)cc21 (centres unmarked) [Example 55, 3-(4-Fluorophenyl)-4-methyl-2-(4-(2-(pyrrolidin-1-yl)ethoxy)phenyl)-2H-chromen-6-ol] | 40 to 65% | > 1 nM | 60 to 85% | ≤ 1 nM | ++ (++ = a single % value ≧50%) | > 1 nM |  |  |
| CC1=C(c2ccccc2C)C(c2ccc(OC[C@H](C)N3CC[C@@H](C)C3)cc2)Oc2ccc(O)cc21 (stereo partly drawn) [Example 56, 4-Methyl-2-(4-((S)-2-((R)-3-methylpyrrolidin-1-yl)propoxy)phenyl)-3-(o-tolyl)-2H-chromen-6-ol] | ≥ 65% | ≤ 1 nM | 60 to 85% | ≤ 1 nM | ++ (++ = a single % value ≧50%) | ≤ 1 nM |  |  |
| CC1=C(c2ccc(F)c(O)c2)C(c2ccc(OC[C@H](C)N3CC[C@@H](C)C3)cc2)Oc2ccc(O)cc21 (stereo partly drawn) [Example 57, 3-(4-Fluoro-3-hydroxyphenyl)-4-methyl-2-(4-((S)-2-((R)-3-methylpyrrolidin-1-yl)propoxy)phenyl)-2H-chromen-6-ol] | ≥ 65% | ≤ 1 nM | ≥ 85% | ≤ 1 nM | ++ (++ = a single % value ≧50%) | ≤ 1 nM |  |  |
| C#Cc1ccc(C2=C(C)c3cc(O)ccc3OC2c2ccc(OC[C@H](C)N3CC[C@@H](C)C3)cc2)cc1 (stereo partly drawn) [Example 58, 3-(4-Ethynylphenyl)-4-methyl-2-(4-((S)-2-((R)-3-methylpyrrolidin-1-yl)propoxy)phenyl)-2H-chromen-6-ol] | ≥ 65% | > 1 nM | 60 to 85% | ≤ 1 nM | ++ (++ = a single % value ≧50%) | > 1 nM |  |  |
| CC1=C(c2ccc(S(C)(=O)=O)cc2)C(c2ccc(OC[C@H](C)N3CC[C@@H](C)C3)cc2)Oc2ccc(O)cc21 (stereo partly drawn) [Example 59, 4-Methyl-2-(4-((S)-2-((R)-3-methylpyrrolidin-1-yl)propoxy)phenyl)-3-(4-(methylsulfonyl)phenyl)-2H-chromen-6-ol] | 40 to 65% | > 1 nM | 60 to 85% | > 1 nM | ++ (++ = a single % value ≧50%) | > 1 nM |  |  |
| CC/C(=C(\c1ccccc1)c1ccc(OCCN(C)C)cc1)c1ccccc1 [Tamoxifen, tamoxifen] |  |  |  |  |  |  | tumor volume remained static | approximately 100 days of treatment |
